In PubChem BioAssay AID1199 (EPA DSSTox, 2008):
The source made the active and inactive calls.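 How the source made its calls: active means a tumour-causing dose and a tumour site recorded for mice in at least one sex group; inconclusive means only government mouse studies exist and were judged inadequate; inactive means mouse studies exist but none gave tumours.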

system: mouse carcinogenicity bioassay, TD50 from CPDB; assay: DSSTox (CPDBAS) Carcinogenic Potency Database Summary Mouse Bioassay Results; conditions: not given
Procedure, shortened: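 Chronic long-term mouse cancer bioassays from literature and NCI/NTP, compiled per sex. TD50 is the standardized carcinogenic potency, using the most positive experiment per sex-species; target sites follow author opinion.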

Row | SMILES | Potency [mmol/kg/day]
1 | CCCCN(CCCC)N=O | 0.00689
2 | CC(C)(C)NC(=O)[C@H]1CC[C@H]2[C@@H]3CC[C@H]4NC(=O)C=C[C@]4(C)[C@H]3CC[C@]12C | 0.875

same assay, conditions: TD50_Mouse_Note: TD50_Mouse_mmol was not calculated for this mixture, but Activiity Score is assigned value of 50 to indicate active

Row | SMILES | outcome
3 | Clc1cccc(-c2ccc(Cl)c(Cl)c2Cl)c1Cl | active; liver

same assay, conditions: TD50_Mouse_Note: TD50 is harmonic mean of more than one positive test; TD50_Mouse_mmol was not calculated for this mixture, but Activiity; TargetSites_Mouse_Female: liver; thyroid gland

Row | SMILES | outcome
4 | CCC(Cl)CCC(Cl)C(Cl)CC(Cl)C(Cl)C(Cl)CCl (stereo not drawn) | active; liver

same assay, conditions: TD50_Mouse_Note: TD50 is harmonic mean of more than one positive test; TargetSites_Mouse_Female: harderian gland; lung; mammary gland; vascular system

Row | SMILES | Potency [mmol/kg/day]
5 | C=CF | 0.176

same assay, conditions: TD50_Mouse_Note: TD50 is harmonic mean of more than one positive test; TargetSites_Mouse_Female: hematopoietic system; stomach

Row | SMILES | Potency [mmol/kg/day]
6 | Nc1nc(/C=C/c2ccc([N+](=O)[O-])o2)no1 | 0.504

same assay, conditions: TD50_Mouse_Note: TD50 is harmonic mean of more than one positive test; TargetSites_Mouse_Female: liver

Row | SMILES | Potency [mmol/kg/day]
7 | ClC1=C(Cl)C2(Cl)C3C(Cl)C=CC3C1(Cl)C2(Cl)Cl (stereo not drawn) | 0.00324
8 | O=Cc1ccco1 | 2.05
9 | O=C(O)C(Cl)(Cl)Cl | 3.57
10 | O=[N+]([O-])c1ccc2nc[nH]c2c1 | 2.28
11 | Nc1ncn[nH]1 | 0.301

same assay, conditions: TD50_Mouse_Note: TD50 is harmonic mean of more than one positive test; TargetSites_Mouse_Female: liver; lung

Row | SMILES | Potency [mmol/kg/day]
12 | O=c1ccc2ccccc2o1 | 0.705

same assay, conditions: TD50_Mouse_Note: TD50 is harmonic mean of more than one positive test; TargetSites_Mouse_Female: liver; lung; stomach

Row | SMILES | Potency [mmol/kg/day]
13 | CC[C@H](C)C(=O)O[C@H]1C[C@@H](C)C=C2C=C[C@H](C)[C@H](CC[C@@H]3C[C@@H](O)CC(=O)O3)[C@H]21 | 1.27

same assay, conditions: TD50_Mouse_Note: TD50 is harmonic mean of more than one positive test; TargetSites_Mouse_Female: lung

Row | SMILES | Potency [mmol/kg/day]
14 | O=CNNC=O | 7.59
15 | CC(=O)NNC(=O)c1ccncc1 | 1.84
16 | NC(=O)NNc1ccccc1 | 1.09

same assay, conditions: TD50_Mouse_Note: TD50 is harmonic mean of more than one positive test; TargetSites_Mouse_Female: no positive results

Row | SMILES | Potency [mmol/kg/day]
17 | C=C1C(C)(C)[C@@]2(Cl)C(Cl)[C@]1(Cl)C(Cl)(Cl)C2(Cl)Cl (stereo partly drawn) | 0.00234
18 | Cc1cc(C(C)(C)C)c(O)c(C(C)(C)C)c1 | 2.96

same assay, conditions: TD50_Mouse_Note: TD50 is harmonic mean of more than one positive test; TargetSites_Mouse_Female: stomach

Row | SMILES | Potency [mmol/kg/day]
19 | c1cc(OCC2CO2)cc(OCC2CO2)c1 (stereo not drawn) | 0.109

same assay, conditions: TD50_Mouse_Note: TD50 is harmonic mean of more than one positive test; greater than ten-fold variation among TD50 values for positive res; TargetSites_Mouse_Female: adrenal gland; liver

Row | SMILES | Potency [mmol/kg/day]
20 | ClC(Cl)(Cl)Cl | 0.218

same assay, conditions: TD50_Mouse_Note: TD50 is harmonic mean of more than one positive test; greater than ten-fold variation among TD50 values for positive res; TargetSites_Mouse_Female: hematopoietic system; lung; stomach; urinary bladder

Row | SMILES | Potency [mmol/kg/day]
21 | O=CNc1nc(-c2ccc([N+](=O)[O-])o2)cs1 | 0.0824

same assay, conditions: TD50_Mouse_Note: TD50 is harmonic mean of more than one positive test; harmonic mean of TD50 includes a value for upper 99% confidence li; TargetSites_Mouse_Female: lung; vascular system

Row | SMILES | Potency [mmol/kg/day]
22 | CNNC | 0.000857

same assay, conditions: TD50_Mouse_Note: no positive results; TargetSites_Mouse_Female: no positive results

Row | SMILES | outcome
23 | Cc1ccc(C)c(OCCCC(C)(C)C(=O)O)c1 | inactive; no positive results
24 | CCOP(=O)(CC1CO1)OCC (stereo not drawn) | inactive
25 | COc1cc2c(c3oc(=O)c4c(c13)CCC4=O)C1C=COC1O2 (stereo not drawn) | inactive; no positive results
26 | Oc1cccc2cccnc12.Oc1cccc2cccnc12.[Cu] | inactive; no positive results
27 | CCCNC(=O)NS(=O)(=O)c1ccc(Cl)cc1 | inactive; no positive results
28 | O=c1c(CO)c/c(=N/Nc2ccc(S(=O)(=O)O)c3ccccc23)c(=O)/c1=N/Nc1ccc(S(=O)(=O)O)c2ccccc12 | inactive; no positive results
29 | OCCO | inactive; no positive results
30 | CC(O)c1ccccc1 (stereo not drawn) | inactive; no positive results
31 | FC(F)OC(Cl)C(F)(F)F (stereo not drawn) | inactive; no positive results
32 | CN1C(=O)C[C@@H](C(=O)N[C@@H](Cc2cnc[nH]2)C(=O)N2CCC[C@H]2C(N)=O)NC1=O | inactive; no positive results
33 | Cc1ccc2c(-c3cccc(O)c3)nc(=O)n(C(C)C)c2c1 | inactive; no positive results
34 | CCOC(=O)[C@]1(c2ccccc2)CCC=C[C@H]1N(C)C | inactive; no positive results
35 | O=S(=O)(Oc1ccc(Cl)cc1Cl)c1ccccc1 | inactive; no positive results
36 | COc1cc(N)ccc1N=Nc1ccccc1 | inactive; no positive results
37 | CC(=O)C(N=Nc1ccc(-c2ccc(N=NC(C(C)=O)C(=O)Nc3ccccc3)c(Cl)c2)cc1Cl)C(=O)Nc1ccccc1 (stereo not drawn) | inactive; no positive results
38 | C[C@]12C=CC(=O)C=C1CC[C@@H]1[C@@H]2C(=O)C[C@@]2(C)[C@H]1CC[C@]2(O)C(=O)CO | inactive; no positive results
39 | Nc1cc([N+](=O)[O-])ccc1C(=O)O | inactive; no positive results
40 | CCCCNC(=O)NS(=O)(=O)c1ccc(C)cc1 | inactive; no positive results
41 | C[C@H](CCC(=O)O)[C@H]1CC[C@H]2[C@@H]3CC[C@@H]4C[C@H](O)CC[C@]4(C)[C@H]3CC[C@]12C | inactive; no positive results
42 | O=[N+]([O-])c1cc([As](=O)(O)O)ccc1O | inactive; no positive results

Row | SMILES | outcome
43 | CNCCC(Oc1ccc(C(F)(F)F)cc1)c1ccccc1 (stereo not drawn) | inactive; no positive results
44 | S=C(S)NCCNC(=S)S | inactive; no positive results
45 | COc1cc(-c2ccc(N=C=O)c(OC)c2)ccc1N=C=O | inactive; no positive results
46 | O=C(O)CCl | inactive; no positive results
47 | O=c1c(O)c(-c2ccc(O)c(O)c2)oc2cc(O)cc(O)c12 | inactive; no positive results
48 | CC(C)(C)c1cc(O)ccc1O | inactive; no positive results
49 | O=[N+]([O-])c1cc([N+](=O)[O-])c(Cl)c(Cl)c1Cl | inactive; no positive results
50 | CC(=O)[O][Sn]([c]1ccccc1)([c]1ccccc1)[c]1ccccc1 | inactive; no positive results
51 | CN(C)C(=S)[S][Bi]([S]C(=S)N(C)C)[S]C(=S)N(C)C | inactive; no positive results
52 | Oc1c(Cl)cc(Cl)cc1Sc1cc(Cl)cc(Cl)c1O | inactive; no positive results
53 | NC(=S)Nc1cccc2ccccc12 | inactive; no positive results
54 | Cl[C@H]1OCCO[C@@H]1Cl | inactive
55 | COc1ccc(CN(CCN(C)C)c2ccccn2)cc1 | inactive; no positive results
56 | CC(Cc1ccccc1)NN (stereo not drawn) | inactive; no positive results
57 | CCOC(=O)CBr | inactive
58 | O=C(Oc1ccccc1)Oc1ccccc1 | inactive; no positive results
59 | CCCCCCCCCc1ccc(OCCOCCO)cc1 | inactive
60 | CC(=O)OC1CC(C)OC(C)O1 (stereo not drawn) | inactive; no positive results
61 | Oc1ccc2ccccc2c1N=Nc1ccccc1 | inactive; no positive results
62 | S=C=Nc1ccccc1 | inactive; no positive results

Row | SMILES | outcome
63 | COP(=S)(OC)SCn1nnc2ccccc2c1=O | inactive; no positive results
64 | CCNc1nc(Cl)nc(NC(C)C)n1 | inactive; no positive results
65 | Cn1cc(C(=O)[C@@H]2CCc3nc[nH]c3C2)c2ccccc21 | inactive; no positive results
66 | [Cd+2].[Cl-].[Cl-] | inactive
67 | C/C=C/c1ccc2c(c1)OCO2 | inactive; no positive results
68 | Nc1ccc2ccccc2c1S(=O)(=O)O | inactive; no positive results
69 | C=CCOc1ccccc1OCC(O)CNC(C)C (stereo not drawn) | inactive; no positive results
70 | NC(N)=O | inactive; no positive results
71 | CC1=C(/C=C/C(C)=C/C=C/C(C)=C/C=C/C=C(C)/C=C/C=C(C)/C=C/C2=C(C)CCCC2(C)C)C(C)(C)CCC1 | inactive; no positive results
72 | CN(C)c1ccccc1 | inactive; no positive results
73 | OCc1ccccc1 | inactive; no positive results
74 | CCCOC(=O)c1cc(O)c(O)c(O)c1 | inactive; no positive results
75 | CNC(=O)Oc1cc(C)c(N(C)C)c(C)c1 | inactive; no positive results
76 | NS(=O)(=O)c1cc2c(cc1Cl)NCNS2(=O)=O | inactive; no positive results
77 | CCC(Br)(CC)C(=O)NC(N)=O | inactive; no positive results
78 | C=CCc1ccc(O)c(OC)c1 | inactive; no positive results
79 | C=C(C)C | inactive; no positive results
80 | CN(C)[C@@H]1C(=O)C(C(N)=O)=C(O)[C@@]2(O)C(=O)C3=C(O)c4c(O)cccc4[C@@](C)(O)[C@H]3[C@H](O)[C@@H]12 | inactive; no positive results
81 | CCN(CC)C(=O)Nc1ccc(OCC(O)CNC(C)(C)C)c(C(C)=O)c1 (stereo not drawn) | inactive; no positive results
82 | O=C(O)CC[N+](=O)[O-] | inactive; no positive results

same assay, conditions: TD50_Mouse_Note: positive test results only by intraperitoneal or intravenous injection; TD50 is harmonic mean of more than one positive; TargetSites_Mouse_Female: liver; vascular system

Row | SMILES | Potency [mmol/kg/day]
83 | C=COC(N)=O | 0.00142

same assay, conditions: TD50_Mouse_Note: positive test results only by intraperitoneal or intravenous injection; TD50 is harmonic mean of more than one positive; TargetSites_Mouse_Female: lung

Row | SMILES | Potency [mmol/kg/day]
84 | O=C(O)CCCc1ccc(N(CCCl)CCCl)cc1 | 0.000437

same assay, conditions: TargetSites_Mouse_BothSexes: no positive results

Row | SMILES | outcome
85 | Cc1cc(C)c(S(=O)(=O)O)cc1N=Nc1cc(S(=O)(=O)O)c2ccccc2c1O | inactive
86 | CCCCCCC(=O)/C=C/CCCCCCCCC(=O)OC | inactive
87 | O=C(OOC(=O)c1ccccc1)c1ccccc1 | inactive

same assay, conditions: TargetSites_Mouse_Female: esophagus; kidney; liver; stomach; urinary bladder

Row | SMILES | Potency [mmol/kg/day]
88 | CC(=O)N(O)c1ccc2c(c1)Cc1ccccc1-2 | 0.026

same assay, conditions: TargetSites_Mouse_Female: hematopoietic system; vascular system

Row | SMILES | Potency [mmol/kg/day]
89 | Cn1cnc([N+](=O)[O-])c1Sc1ncnc2nc[nH]c12 | 0.0322

same assay, conditions: TargetSites_Mouse_Female: liver

Row | SMILES | Potency [mmol/kg/day]
90 | CCCN(CCC)S(=O)(=O)c1ccc(C(=O)O)cc1 | 1.89
91 | C=CCc1ccc(OC)cc1 | 0.35
92 | Nc1ccc(N=Nc2ccccc2)c(N)n1 | 0.285

same assay, conditions: TargetSites_Mouse_Female: no positive results

Row | SMILES | Potency [mmol/kg/day]
93 | Nc1c(F)c(N)c(F)c(F)c1F | 0.341
94 | C=O | 1.46
95 | CCCCCCCCS(=O)C(C)Cc1ccc2c(c1)OCO2 (stereo not drawn) | 0.192
96 | Oc1ccc(Cl)cc1Cc1ccccc1 | 6.17

same assay, conditions: TargetSites_Mouse_Female: thyroid gland

Row | SMILES | Potency [mmol/kg/day]
97 | CCc1cc(C(N)=S)ccn1 | 0.417

same assay, conditions: TargetSites_Mouse_Female: vascular system

Row | SMILES | Potency [mmol/kg/day]
98 | Cc1c2ccccc2c(C)c2c1ccc1ccccc12 | 0.000328
